# Data: patent US5877185A, “Synergistic compositions useful as anti-tumor agents” (priority 1995, dated 1999)
# Entries after “also recorded” stand apart in the source; their conditions may differ.
# Legend:
# L 1210 cells = experiment: cytotoxic effect of IABP and INO2 BA, alone and combined, on L 1210 cell growth; type: cell-based, murine; conditions: Mus musculus, L1210, 72 h, three days, read-out: decrease of L 1210 cell proliferation
# Protocol: 64 μM INO2 BA decreased L 1210 cell proliferation by approximately 80% over a three day growth period.
# [1] = test system: SIVmac239 in CEM ×174 cells; experiment: effect of IABP on SIVmac239 replication, p27 core antigen assay; type: cell-based, SIV
# Protocol: CEM ×174 cells (3×10^5 /ml) were infected with SIVmac239 on day 0 and incubated for 3 days (37° C., 5% CO2) before treatment with IABP (0-0.5 mM). The cultures were incubated for an additional 4 days before being replenished with fresh CEM ×174 cells (3×10^5/ml) and IABP. On day 10 the levels of free virus in the supernatants of the cultures were assessed using the SIV p27 core antigen assay (Coulter Corp). The absorbance was measured at 450 nm.
# The effect of IABP on the infection cycle of SIV was determined. CEM ×174 cells (3×10^5 /ml) were infected with SIVmac239 on day 0 and incubated for 3 days ([…], 5% CO2) before treatment with IABP (0-0.5 mM). The cultures were incubated for an additional 4 days before being replenished with fresh CEM ×174 cells (3×10^5/ml) and IABP. On day 10 the levels of free virus in the supernatants of the cultures were assessed using the SIV p27 core antigen assay (Coulter Copr.) The absorbance was measured at 450 nm.
# [2] = test system: SIVmac239 or virus isolates in CEM ×174 cells; conditions: Chuang et al., submitted (1994); cited from earlier work
# HIV = conditions: Cole et al.; cited from earlier work
# cells = conditions: Cole et al.; cited from earlier work
# [3] = test system: CCHC zinc fingers of pADPRT or p7 NC protein of retroviruses; conditions: cited from earlier work
smiles,measurement,setting,value
"Nc1ccc2oc(=O)ccc2c1I [IABP, 5-iodo-6-amino-1,2-benzopyrone]",inhibition at 160 µM,L 1210 cells; IABP 160 μM,~55%
same,inhibition at 320 µM,L 1210 cells; IABP 320 μM,~80%
same,inhibition at 480 µM,L 1210 cells; IABP 480 μM,~93%
same,p27 levels,"[1]; 0-0.5 mM, day 10",depresses p27 levels proportional to its concentration
same,titre of virions in the supernatant,[1]; 0.3 and 0.5 mM IABP,reduced the titre of virions
same,sensitivity to addition of BSO,[2],insensitive
same,infectious cycle of HIV,HIV,blocked the infectious cycle of HIV
same,toxicity of IABP,cells,very low; also recorded: no toxic effect on cells; also recorded: non-toxicity
same,influence on CCHC zinc fingers,[3],no influence
